Results: patent publication US20210040118A1, “IMMUNOMODULATORS, COMPOSITIONS AND METHODS THEREOF” (BETTA PHARMACEUTICALS CO., LTD, priority 2018, published 2021)

Target: T1, PD-1/PD-L1 (Homo sapiens, UniProt Q9NZQ7)
T1 construct: Recombinant human PD-L1 protein (19-238) with a His-tag at the C-terminus; purchased AcroBiosystems PD1-H5229 (PD-L1); PD1-H5257 (PD-1)
Assay: PD-1/PD-L1 homogenous time-resolved fluorescence (HTRF) binding assay
Conditions: recombinant human PD-L1 (19-238) His-tag / human PD-1 (25-167) Fc tag, class symbols
How it was run: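 Inhibitors were preincubated 40 min at 25°C with 10 nM His-tagged human PD-L1 (19-238) and 3 nM Fc-tagged human PD-1 (25-167) in PBS pH 7.4 containing Tween-20, BSA and 1% DMSO. After 60 min with europium anti-human IgG and anti-His-APC, 665/620 nm signal ratio gave IC50 via percent-control fit.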

T1 sequence (Q9NZQ7 19-238): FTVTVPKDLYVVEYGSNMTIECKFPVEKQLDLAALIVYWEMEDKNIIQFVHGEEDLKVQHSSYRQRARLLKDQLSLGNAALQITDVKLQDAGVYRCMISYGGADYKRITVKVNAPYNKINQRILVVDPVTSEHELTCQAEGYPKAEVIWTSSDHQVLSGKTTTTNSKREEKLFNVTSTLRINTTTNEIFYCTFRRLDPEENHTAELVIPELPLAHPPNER

| SMILES | IC50 |
| --- | --- |
| Cc1c(NC(=O)c2ccc3c(n2)CCN(CC(F)F)C3)cccc1-c1cccc(NC(=O)c2ccc3c(n2)CCN(CC(F)F)C3)c1C [Example 187, N,N′-(2,2′-dimethyl-[1,1′-biphenyl]-3,3′-diyl)bis(6-(2,2-difluoroethyl)-5,6,7,8-tetrahydro-1,6-naphthyridine-2-carboxamide)] | 25 to 100 nM |
| Cc1c(NC(=O)c2cn3c(n2)CNCC3)cccc1-c1cccc(NC(=O)c2cc3c(s2)CNCC3)c1C [Example 42, N-(2,2′-dimethyl-3′-(5,6,7,8-tetrahydroimidazo[1,2-a]pyrazine-2-carboxamido)-[1,1′-biphenyl]-3-yl)-4,5,6,7-tetrahydrothieno[2,3-c]pyridine-2-carboxamide] | < 25 nM |
| CN1CCc2nc(C(=O)N3CCc4c(-c5cccc6c5CCN6C(=O)c5nc6c(s5)CN(C)CC6)cccc43)sc2C1 [Example 83, [4,4′-biindoline]-1,1′-diylbis((5-methyl-4,5,6,7-tetrahydrothiazolo[5,4-c]pyridin-2-yl)methanone)] | < 25 nM |
| Cc1c(-c2cccc(N(C)C(=O)c3cc4c(s3)CNCC4)c2C)cccc1N(C)C(=O)c1cn2c(n1)CNCC2 [Example 5, N-(2,2′-dimethyl-3′-(N-methyl-5,6,7,8-tetrahydroimidazo[1,2-a]pyrazine-2-carboxamido)-[1,1′-biphenyl]-3-yl)-N-methyl-4,5,6,7-tetrahydrothieno[2,3-c]pyridine-2-carboxamide] | 100 to 200 nM |
| Cc1c(Nc2nccc3cc(CNCC(=O)O)cnc23)cccc1-c1cccc(Nc2nccc3cc(CN4CCC4)cnc23)c1C [Example 149, ((8-((3′-((3-(azetidin-1-ylmethyl)-1,7-naphthyridin-8-yl)amino)-2,2′-dimethyl-[1,1′-biphenyl]-3-yl)amino)-1,7-naphthyridin-3-yl)methyl)glycine] | < 25 nM |
| O=C(c1nc2c(s1)CN(CC(F)(F)F)CC2)N1CCc2c(-c3cccc4c3CCN4C(=O)c3nc4c(s3)CN(CC(F)(F)F)CC4)cccc21 [Example 84, [4,4′-biindoline]-1,1′-diylbis((5-(2,2,2-trifluoroethyl)-4,5,6,7-tetrahydrothiazolo[5,4-c]pyridin-2-yl)methanone)] | 25 to 100 nM |
| CC(=O)N1CCc2nc(C(=O)Nc3cccc(-c4cccc(NC(=O)c5ccc6c(n5)CCNC6)c4C)c3C)ccc2C1 [Example 182, 6-acetyl-N-(2,2′-dimethyl-3′-(5,6,7,8-tetrahydro-1,6-naphthyridine-2-carboxamido)-[1,1′-biphenyl]-3-yl)-5,6,7,8-tetrahydro-1,6-naphthyridine-2-carboxamide] | < 25 nM |
| Cc1c(NC(=O)c2cc3c(s2)CCNC3)cccc1-c1cccc(NC(=O)c2nc3c(s2)CNCC3)c1C [Example 15, N-(2,2′-dimethyl-3′-(4,5,6,7-tetrahydrothieno[3,2-c]pyridine-2-carboxamido)-[1,1′-biphenyl]-3-yl)-4,5,6,7-tetrahydrothiazolo[5,4-c]pyridine-2-carboxamide] | < 25 nM |
| Cc1c(Nc2nccc3cc(CNCC(=O)O)cnc23)cccc1-c1cccc(Nc2nccc3cc(CNCC(=O)N(C)C)cnc23)c1C [Example 148, ((8-((3′-((3-(((2-(dimethylamino)-2-oxoethyl)amino)methyl)-1,7-naphthyridin-8-yl)amino)-2,2′-dimethyl-[1,1′-biphenyl]-3-yl)amino)-1,7-naphthyridin-3-yl)methyl)glycine] | < 25 nM |
| Cc1c(NC(=O)c2cnc(C(C)NCCO)cn2)cccc1-c1cccc(NC(=O)c2cnc(C(C)NCCO)cn2)c1C (stereo not shown) [Example 181, N,N′-(2,2′-dimethyl-[1,1′-biphenyl]-3,3′-diyl)bis(5-(1-((2-hydroxyethyl)amino)ethyl)pyrazine-2-carboxamide)] | < 25 nM |
| Cc1c(Nc2nccc3cc(CNCCO)cnc23)cccc1-c1cccc(Nc2nccc3cc(CNCC(=O)O)cnc23)c1C [Example 139, ((8-((3′-((3-(((2-hydroxyethyl)amino)methyl)-1,7-naphthyridin-8-yl)amino)-2,2′-dimethyl-[1,1′-biphenyl]-3-yl)amino)-1,7-naphthyridin-3-yl)methyl)glycine] | < 25 nM |
| Cc1c(NC(=O)c2ccc3c(n2)CCN(CCO)C3)cccc1-c1cccc(NC(=O)c2ccc3c(n2)CCN(CCO)C3)c1C [Example 174, N,N′-(2,2′-dimethyl-[1,1′-biphenyl]-3,3′-diyl)bis(6-(2-hydroxyethyl)-5,6,7,8-tetrahydro-1,6-naphthyridine-2-carboxamide)] | < 25 nM |
| O=C(c1ncc(CNCCO)s1)N1CCc2c(-c3cccc4c3CCN4C(=O)c3nc4c(s3)CNCC4)cccc21 [Example 99, (5-(((2-hydroxyethyl)amino)methyl)thiazol-2-yl)(1′-(4,5,6,7-tetrahydrothiazolo[5,4-c]pyridine-2-carbonyl)-[4,4′-biindolin]-1-yl)methanone] | < 25 nM |
| O=C(c1nc2c(s1)CN(C1COC1)CC2)N1CCc2c(-c3cccc4c3CCN4C(=O)c3nc4c(s3)CN(C3COC3)CC4)cccc21 [Example 88, [4,4′-biindoline]-1,1′-diylbis((5-(oxetan-3-yl)-4,5,6,7-tetrahydrothiazolo[5,4-c]pyridin-2-yl)methanone)] | < 25 nM |
| CN(C)C(=O)CN1CCc2nc(C(=O)N3CCc4c(-c5cccc6c5CCN6C(=O)c5nc6c(s5)CN(CC(=O)O)CC6)cccc43)sc2C1 [Example 109, 2-(2-(1′-(5-(2-(dimethylamino)-2-oxoethyl)-4,5,6,7-tetrahydrothiazolo[5,4-c]pyridine-2-carbonyl)-[4,4′-biindoline]-1-carbonyl)-6,7-dihydrothiazolo[5,4-c]pyridin-5(4H)-yl)acetic acid] | < 25 nM |
| Cc1c(NC(=O)c2nc3c(s2)CN(C(C)CO)CC3)cccc1-c1cccc(NC(=O)c2nc3c(s2)CN(C(C)CO)CC3)c1C (stereo not shown) [Example 45, N,N′-(2,2′-dimethyl-[1,1′-biphenyl]-3,3′-diyl)bis(5-(1-hydroxypropan-2-yl)-4,5,6,7-tetrahydrothiazolo[5,4-c]pyridine-2-carboxamide)] | < 25 nM |
| Cc1c(NC(=O)c2ccc3c(n2)CCN(CC(=O)O)C3)cccc1-c1cccc(NC(=O)c2ccc3c(n2)CCN(CC(=O)O)C3)c1C [Example 173, 2,2′-((((2,2′-dimethyl-[1,1′-biphenyl]-3,3′-diyl)bis(azanediyl))bis(carbonyl))bis(7,8-dihydro-1,6-naphthyridine-2,6(5H)-diyl))diacetic acid] | < 25 nM |
| Cc1c(Nc2nccc3cc(CNCC(=O)N(C)C)cnc23)cccc1-c1cccc(Nc2nccc3cc(CNCC(F)(F)F)cnc23)c1C [Example 146, 2-(((8-((2,2′-dimethyl-3′-((3-(((2,2,2-trifluoroethyl)amino)methyl)-1,7-naphthyridin-8-yl)amino)-[1,1′-biphenyl]-3-yl)amino)-1,7-naphthyridin-3-yl)methyl)amino)-N,N-dimethylacetamide] | < 25 nM |
| Cc1c(NC(=O)c2nc3c(s2)CN(C)CC3)cccc1-c1cccc(NC(=O)c2nc3c(s2)CN(C)CC3)c1Cl [Example 49, N,N′-(2-chloro-2′-methylbiphenyl-3,3′-diyl)bis(5-methyl-4,5,6,7-tetrahydrothiazolo[5,4-c]pyridine-2-carboxamide)] | < 25 nM |
